{"source": "patent US9458437B2", "about": "“Neuroprotective peptides that inhibit interaction between palmitoyl acyl transferase zinc-finger DHHC type containing 17 (zD17) and c-jun N-terminal kinase (JNK)” (The University of British Columbia, priority 2011, dated 2016)", "key": {"zD17-JNK3 interaction": {"target": "zD17-JNK3 interaction (Rattus norvegicus, UniProt P49187)", "sequence (P49187 whole entry)": "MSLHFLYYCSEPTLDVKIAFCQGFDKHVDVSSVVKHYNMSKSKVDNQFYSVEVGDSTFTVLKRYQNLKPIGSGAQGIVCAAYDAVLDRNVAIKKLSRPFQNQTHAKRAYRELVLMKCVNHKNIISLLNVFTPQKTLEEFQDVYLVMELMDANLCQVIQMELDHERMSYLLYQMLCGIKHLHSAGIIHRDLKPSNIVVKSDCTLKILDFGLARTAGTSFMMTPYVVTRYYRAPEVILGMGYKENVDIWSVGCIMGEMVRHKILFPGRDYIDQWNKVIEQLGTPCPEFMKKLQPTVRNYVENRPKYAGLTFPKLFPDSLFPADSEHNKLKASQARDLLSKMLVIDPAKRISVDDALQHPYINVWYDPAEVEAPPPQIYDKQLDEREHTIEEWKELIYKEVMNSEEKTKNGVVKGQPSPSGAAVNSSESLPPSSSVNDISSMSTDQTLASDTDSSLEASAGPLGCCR", "assay": "zD17-JNK3 interaction in the injured hemisphere after MCAo", "type": "in vivo, Sprague-Dawley rat", "parameters": "Lysates of rat brain tissues were precleaned with IgG and protein A-beads; from tissue; host or cells: brain (injured left hemisphere) of adult male Sprague-Dawley rats", "settings": "single intravenous injection 30 min before MCAo", "procedure": "The protocols for protein extraction have been described previously (Yang et al., 2009). For co-immunoprecipitation, cultured cells were washed with ice-cold PBS followed by incubation with 0.5 ml Gentle Lysis Buffer (GLB) containing 25 mM Tris-HCl (pH 7.4), 2 mM EDTA, 1 mM EGTA, 10 mM NaCl, 0.5% Triton X-100 and 10% Glycerol supplemented with the Complete Protease Inhibitor Tablets (Roche Applied Science™, Indianapolis, Ind., USA) and 1 mM PMSF. Total protein concentration was determined with the BioRad™ Protein Assay kit. […] Immunoprecipitates were washed three times with GLB buffer; boiled in 2× loading buffer with 1 mM dithiothreitol (DTT) for 3 min; and analyzed with SDS-PAGE as described previously (Yang et al., 2009). The relative intensities of the bands on immunoblots were analyzed and quantified using Image J™ (NIH). […]\nPeptides were synthesized by PepMetric Technologies™ or GL Biochem™ (Shanghai, China). […] Injections of NIMoEscr and NIMoEsh were made, brain damage was assessed and functional evaluations performed in a double-blind manner To examine the delivery of the peptide into the brain, 5 mg/kg FITC-labelled NIMoE or only saline was intravenously injected 1 h before perfusion. […]"}, "[1]": {"system": "middle cerebral artery occlusion (MCAo)", "assay": "transient MCAo in SD rats, neurological scores", "type": "in vivo, Sprague-Dawley rat", "procedure": "Adult male Sprague-Dawley (SD) rats weighing 250-290 g were employed for transient middle cerebral artery occlusion. Rats were anaesthetized with 5% isofluorane and maintained with 2% isofluorane in 70% N2O and 30% O2 using a face mask. 5 mg/kg ketoprofen was given pre-surgery to block pain. Rectal temperature was maintained at 37° C. during surgery with a homeothermic blanket system (Harvard Apparatus™, Holliston, Mass.). The scalp was incised at the midline and the skull was exposed. The skull was thinned with a dental drill at a region ipsilateral to the expected ischemia zone (2 mm posterior and 5 mm lateral from the bregma). […]\nPeptides were synthesized by PepMetric Technologies™ or GL Biochem™ (Shanghai, China). […] Injections of NIMoEscr and NIMoEsh were made, brain damage was assessed and functional evaluations performed in a double-blind manner To examine the delivery of the peptide into the brain, 5 mg/kg FITC-labelled NIMoE or only saline was intravenously injected 1 h before perfusion. […] After rapid freezing in Tissue-Tek™ embedding medium (Sakura™, Torrance, Calif.) on dry ice, 20 μm sections were cut on a cryostat (Leica™ CM3050, Ontario, Canada) and examined for FITC fluorescence by a laser microscopy (Zeiss™, Axiovert 200). […]"}}, "data": [{"sequence": "WAAYRTHSVD (listed as Homo sapiens) [NIMoEsh, shorter 10mer of NIMoE, primarily the loop region of motif-E (zD17 196-205)]", "values": [{"measurement": "enhancement of the zD17-JNK3 interaction after MCAo", "setting": "zD17-JNK3 interaction", "value": "effectively attenuated"}, {"measurement": "behavioural deficits evaluated with neurological scores", "setting": "[1]; NIMoEsh administration, MCAo rats", "value": "substantially reduced"}, {"measurement": "duration of improvement of behavioural performance", "setting": "[1]; injected 2 h post-surgery, double-blinded", "value": "persisted over 14 days"}]}]}
